US20150087673A1, “METHODS FOR USING AND BIOMARKERS FOR AMPK-ACTIVATING COMPOUNDS” (RIGEL PHARMACEUTICALS, INC., priority 2013, published 2015)

tested on: AMPK; assay: AMPK activation assay (enzyme-linked immunosorbent assay); assay type: cell-based
How it was run: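 Activator screen performed per well-known kit methods.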

N#Cc1ccc(CN2CC[C@@H](NC(=O)c3ccc(C(=O)N4CCN(Cc5ccc(F)cc5)CC4)cn3)C2)cc1 [Compound 118, (R)-N-(1-(4-cyanobenzyl)pyrrolidin-3-yl)-5-(4-(4-fluorobenzyl)piperazine-1-carbonyl)picolinamide] and N#Cc1ccc(OC2CCN(C(=O)c3ccc(C(=O)NC4CCN(Cc5ccc(OC(F)(F)F)cc5)CC4)cn3)CC2)cc1 [Compound 338, 6-(4-(4-cyanophenoxy)piperidine-1-carbonyl)-N-(1-(4-(trifluoromethoxy)benzyl)piperidin-4-yl)nicotinamide] cannot be ordered by EC50: < 500 nM for the first, < 500 nM for the second.

With COc1ccc(C(=O)C2CCN(C(=O)c3ccc(C(=O)NC4CCN(Cc5ccc(N)cc5)CC4)cn3)CC2)cc1 [Compound 400, N-(1-(4-aminobenzyl)piperidin-4-yl)-6-(4-(4-methoxybenzoyl)piperidine-1-carbonyl)nicotinamide] the EC50 was 1000 to 5000 nM.
